Experimental data: BindingDB's records for doi:10.1021/jm9707028 (Boehringer Ingelheim Pharmaceuticals, 1998)

What was measured:
Test in all cases: HIV-1 RT Assay
[1] = target: T1, Gag-Pol polyprotein [600-1027,Y787L]/[600-1155,Y787L] (Human immunodeficiency virus 1, UniProt P03366, Y787L)
T1 construct: 600-1027; 600-1155

[2] = target: T2, Gag-Pol polyprotein [600-1027,Y780C]/[600-1155,Y780C] (Human immunodeficiency virus 1, UniProt P03366, Y780C)
T2 construct: 600-1027; 600-1155

[3] = target: T3, Gag-Pol polyprotein [600-1027,R876K]/[600-1155] (Human immunodeficiency virus 1, UniProt P03366, R876K)
T3 construct: 600-1027; 600-1155

CCN1c2ncc(CCc3cccc(NS(C)(=O)=O)c3)cc2C(=O)N(C)c2ccc(Cl)nc21 [N-[3-(2-{5-chloro-2-ethyl-9-methyl-10-oxo-2,4,9,15-tetraazatricyclo[9.4.0.0^{3,8}]pentadeca-1(15),3(8),4,6,11,13-hexaen-13-yl}ethyl)phenyl]methanesulfonamide]
IC50 [1]: > 1000 nM

CCN1c2ncc(CCc3ccc(N)cc3)cc2C(=O)N(C)c2ccc(Cl)nc21 [13-[2-(4-aminophenyl)ethyl]-5-chloro-2-ethyl-9-methyl-2,4,9,15-tetraazatricyclo[9.4.0.0^{3,8}]pentadeca-1(15),3(8),4,6,11,13-hexaen-10-one]
IC50 [1]: > 1000 nM

CCN1c2ncc(CCc3ccccc3C)cc2C(=O)N(C)c2cccnc21 [2-ethyl-9-methyl-13-[2-(2-methylphenyl)ethyl]-2,4,9,15-tetraazatricyclo[9.4.0.0^{3,8}]pentadeca-1(11),3,5,7,12,14-hexaen-10-one]
IC50 [1]: > 1000 nM

CCN1c2ncc(CCc3cccc(N=[N+]=[N-])c3)cc2C(=O)N(C)c2ccc(Cl)nc21 [13-[2-(3-azidophenyl)ethyl]-5-chloro-2-ethyl-9-methyl-2,4,9,15-tetraazatricyclo[9.4.0.0^{3,8}]pentadeca-1(15),3(8),4,6,11,13-hexaen-10-one]
IC50 [1]: > 1000 nM

CCN1c2ncc(Cl)cc2C(=O)N(C)c2cccnc21 [13-chloro-2-ethyl-9-methyl-2,4,9,15-tetraazatricyclo[9.4.0.0^{3,8}]pentadeca-1(11),3,5,7,12,14-hexaen-10-one]
IC50 ([2]; pH 7.8, 22 °C): > 1000 nM

CCN1c2ncc(CCc3ccccn3)cc2C(=O)N(C)c2cccnc21 [2-ethyl-9-methyl-13-[2-(pyridin-2-yl)ethyl]-2,4,9,15-tetraazatricyclo[9.4.0.0^{3,8}]pentadeca-1(11),3,5,7,12,14-hexaen-10-one]
IC50 [2]: > 1000 nM
IC50 [1]: > 1000 nM

CCN1c2ncc(CCc3ccnc(CO)c3)cc2C(=O)N(C)c2ccc(Cl)nc21 [5-chloro-2-ethyl-13-{2-[2-(hydroxymethyl)pyridin-4-yl]ethyl}-9-methyl-2,4,9,15-tetraazatricyclo[9.4.0.0^{3,8}]pentadeca-1(15),3(8),4,6,11,13-hexaen-10-one]
IC50 [1]: > 1000 nM

CCN1c2ncc(CCc3cncnc3)cc2C(=O)N(C)c2cccnc21 [2-ethyl-9-methyl-13-[2-(pyrimidin-5-yl)ethyl]-2,4,9,15-tetraazatricyclo[9.4.0.0^{3,8}]pentadeca-1(11),3,5,7,12,14-hexaen-10-one]
IC50 [2]: > 1000 nM
IC50 [1]: > 1000 nM

CCN1c2ncc(CCc3ccc(C)cc3)cc2C(=O)N(C)c2cccnc21 [2-ethyl-9-methyl-13-[2-(4-methylphenyl)ethyl]-2,4,9,15-tetraazatricyclo[9.4.0.0^{3,8}]pentadeca-1(11),3,5,7,12,14-hexaen-10-one]
IC50 [3]: 100 nM
IC50 [1]: > 1000 nM

CCN1c2ncc(CCc3ccc4ccccc4c3)cc2C(=O)N(C)c2ccc(Cl)nc21 [5-chloro-2-ethyl-9-methyl-13-[2-(naphthalen-2-yl)ethyl]-2,4,9,15-tetraazatricyclo[9.4.0.0^{3,8}]pentadeca-1(15),3(8),4,6,11,13-hexaen-10-one]
IC50 [1]: > 1000 nM

CCN1c2ncc(CCc3cccc(N)c3)cc2C(=O)N(C)c2cccnc21 [13-[2-(3-aminophenyl)ethyl]-2-ethyl-9-methyl-2,4,9,15-tetraazatricyclo[9.4.0.0^{3,8}]pentadeca-1(15),3(8),4,6,11,13-hexaen-10-one]
IC50 [1]: > 1000 nM

CCN1c2ncc(CCc3cccc(C)c3)cc2C(=O)N(C)c2cccnc21 [2-ethyl-9-methyl-13-[2-(3-methylphenyl)ethyl]-2,4,9,15-tetraazatricyclo[9.4.0.0^{3,8}]pentadeca-1(11),3,5,7,12,14-hexaen-10-one]
IC50 [1]: > 1000 nM

CCN1c2ncc(CCc3ccncc3)cc2C(=O)N(C)c2ccc(C#N)nc21 [2,8-Disubstituted Dipyridodiazepinone 38]
IC50 [1]: > 1000 nM

CCN1c2ncc(N)cc2C(=O)N(C)c2cccnc21 [13-amino-2-ethyl-9-methyl-2,4,9,15-tetraazatricyclo[9.4.0.0^{3,8}]pentadeca-1(11),3,5,7,12,14-hexaen-10-one]
IC50 ([3]; pH 7.8, 22 °C): 100 nM

CCN1c2ncc(CCc3ccnc(C)c3)cc2C(=O)N(C)c2cccnc21 [2-ethyl-9-methyl-13-[2-(2-methylpyridin-4-yl)ethyl]-2,4,9,15-tetraazatricyclo[9.4.0.0^{3,8}]pentadeca-1(15),3(8),4,6,11,13-hexaen-10-one]
IC50 [1]: > 1000 nM

CCN1c2ncc(CCc3nccs3)cc2C(=O)N(C)c2cccnc21 [2-ethyl-9-methyl-13-[2-(1,3-thiazol-2-yl)ethyl]-2,4,9,15-tetraazatricyclo[9.4.0.0^{3,8}]pentadeca-1(11),3,5,7,12,14-hexaen-10-one]
IC50 [1]: > 1000 nM

CCN1c2ncc(/C=C/C(=O)OC)cc2C(=O)N(C)c2cccnc21 [methyl (2E)-3-{2-ethyl-9-methyl-10-oxo-2,4,9,15-tetraazatricyclo[9.4.0.0^{3,8}]pentadeca-1(11),3,5,7,12,14-hexaen-13-yl}prop-2-enoate]
IC50 ([3]; pH 7.8, 22 °C): > 1000 nM

CCN1c2ncc(C(=O)O)cc2C(=O)N(C)c2cccnc21 [2-ethyl-9-methyl-10-oxo-2,4,9,15-tetraazatricyclo[9.4.0.0^{3,8}]pentadeca-1(11),3,5,7,12,14-hexaene-13-carboxylic acid]
IC50 ([3]; pH 7.8, 22 °C): > 1000 nM

CCN1c2ncc(CCc3ccccc3)cc2C(=O)N(C)c2ccc(-c3ccc[nH]3)nc21 [2-ethyl-9-methyl-13-(2-phenylethyl)-5-(1H-pyrrol-2-yl)-2,4,9,15-tetraazatricyclo[9.4.0.0^{3,8}]pentadeca-1(15),3(8),4,6,11,13-hexaen-10-one]
IC50 [3]: 590 nM
IC50 [2]: 520 nM
IC50 [1]: 1280 nM

CCN1c2ncc(CCc3ccc4ccccc4c3)cc2C(=O)N(C)c2cccnc21 [2-ethyl-9-methyl-13-[2-(naphthalen-2-yl)ethyl]-2,4,9,15-tetraazatricyclo[9.4.0.0^{3,8}]pentadeca-1(15),3(8),4,6,11,13-hexaen-10-one]
IC50 [1]: > 1000 nM

CCN1c2ncc(-c3cccc(OC)c3)cc2C(=O)N(C)c2cccnc21 [2-ethyl-13-(3-methoxyphenyl)-9-methyl-2,4,9,15-tetraazatricyclo[9.4.0.0^{3,8}]pentadeca-1(11),3,5,7,12,14-hexaen-10-one]
IC50 ([3]; pH 7.8, 22 °C): > 1000 nM
IC50 ([2]; pH 7.8, 22 °C): > 1000 nM

CCN1c2ncc(CCc3ccnc(C(=O)O)c3)cc2C(=O)N(C)c2ccc(Cl)nc21 [2-Chloro-5,11-dihydro-11-ethyl-5-methyl-8-[2-(2-carboxypyrid-4-yl)ethyl]-6H-dipyrido[3,2-b:2 ,3-e][1,4]diazepin-6-one]
IC50 [1]: > 1000 nM

CCN1c2ncc(CCc3ccccc3N)cc2C(=O)N(C)c2cccnc21 [13-[2-(2-aminophenyl)ethyl]-2-ethyl-9-methyl-2,4,9,15-tetraazatricyclo[9.4.0.0^{3,8}]pentadeca-1(15),3(8),4,6,11,13-hexaen-10-one]
IC50 [1]: > 1000 nM

CCN1c2ncc(CCc3ccccc3C)cc2C(=O)N(C)c2ccc(Cl)nc21 [5-chloro-2-ethyl-9-methyl-13-[2-(2-methylphenyl)ethyl]-2,4,9,15-tetraazatricyclo[9.4.0.0^{3,8}]pentadeca-1(15),3(8),4,6,11,13-hexaen-10-one]
IC50 [3]: > 1000 nM
IC50 [2]: > 1000 nM
IC50 [1]: > 1000 nM

CCN1c2ncc(CCc3ccc(NS(C)(=O)=O)cc3)cc2C(=O)N(C)c2ccc(Cl)nc21 [N-[4-(2-{5-chloro-2-ethyl-9-methyl-10-oxo-2,4,9,15-tetraazatricyclo[9.4.0.0^{3,8}]pentadeca-1(15),3(8),4,6,11,13-hexaen-13-yl}ethyl)phenyl]methanesulfonamide]
IC50 [1]: > 1000 nM

CCN1c2ncc(CCc3ccc4ccccc4c3)cc2C(=O)N(C)c2ccc(F)nc21 [2-ethyl-5-fluoro-9-methyl-13-[2-(naphthalen-2-yl)ethyl]-2,4,9,15-tetraazatricyclo[9.4.0.0^{3,8}]pentadeca-1(15),3(8),4,6,11,13-hexaen-10-one]
IC50 [1]: > 1000 nM

CCN1c2ncc(CCc3ccncc3)cc2C(=O)N(C)c2cccnc21 [2-ethyl-9-methyl-13-[2-(pyridin-4-yl)ethyl]-2,4,9,15-tetraazatricyclo[9.4.0.0^{3,8}]pentadeca-1(11),3,5,7,12,14-hexaen-10-one]
IC50 [3]: 50 nM
IC50 [2]: 130 nM
IC50 [1]: > 1000 nM

CCN1c2ncc(/C=C/c3ccncc3)cc2C(=O)N(C)c2cccnc21 [5,11-Dihydro-11-ethyl-5-methyl-8-[trans-2-(4-pyridyl)ethen-1-yl]-6H-dipyrido[3,2-b:2 ,3-e][1,4]diazepin-6-one]
IC50 [2]: > 1000 nM

CCN1c2ncc(CCc3ccc(C)cc3)cc2C(=O)N(C)c2ccc(Cl)nc21 [5-chloro-2-ethyl-9-methyl-13-[2-(4-methylphenyl)ethyl]-2,4,9,15-tetraazatricyclo[9.4.0.0^{3,8}]pentadeca-1(15),3(8),4,6,11,13-hexaen-10-one]
IC50 [1]: > 1000 nM

CCN1c2ncc(CCc3cccc(C)c3)cc2C(=O)N(C)c2ccc(Cl)nc21 [5-chloro-2-ethyl-9-methyl-13-[2-(3-methylphenyl)ethyl]-2,4,9,15-tetraazatricyclo[9.4.0.0^{3,8}]pentadeca-1(15),3(8),4,6,11,13-hexaen-10-one]
IC50 [1]: > 1000 nM

CCN1c2ncc(CCc3cccnc3)cc2C(=O)N(C)c2cccnc21 [2-ethyl-9-methyl-13-[2-(pyridin-3-yl)ethyl]-2,4,9,15-tetraazatricyclo[9.4.0.0^{3,8}]pentadeca-1(11),3,5,7,12,14-hexaen-10-one]
IC50 [3]: 30 nM
IC50 [1]: > 1000 nM

CCN1c2ncc(C)cc2C(=O)N(C)c2cccnc21 [2-ethyl-9,13-dimethyl-2,4,9,15-tetraazatricyclo[9.4.0.0^{3,8}]pentadeca-1(11),3,5,7,12,14-hexaen-10-one]
IC50 ([2]; pH 7.8, 22 °C): > 1000 nM

CCN1c2ncc(CCc3ccc(N)cc3)cc2C(=O)N(C)c2cccnc21 [13-[2-(4-aminophenyl)ethyl]-2-ethyl-9-methyl-2,4,9,15-tetraazatricyclo[9.4.0.0^{3,8}]pentadeca-1(15),3(8),4,6,11,13-hexaen-10-one]
IC50 [1]: > 1000 nM
